Series [1] deals with human PC3-LN lung metastases. As for the experimental part:
Animal care was in accordance with the guidelines at the Ohio State University. Several human tumor models were used, including (a) lung metastases derived from intravenous injection of human PC3-LN tumor cells, (b) lung tumors derived from direct injection of human PC3 cells in lungs, and (c) subcutaneously implanted PC3 tumors. Four studies were performed. In all studies, drug treatment was administered intravenously via a tail vein, after the tumor was established. The first and second studies used the intravenous PC3-LN lung metastasis model. Briefly, human PC3-LN cells ([…] in 0.1 ml physiologic saline) were injected intravenously, via a tail vein, into immunodeficient mice. […] Treatment was given twice weekly for three weeks. […] Three days after completion of drug treatments, animals were euthanized and their lungs removed, fixed in Bouin's solution to visualize tumor nodules, and then processed for histologic evaluation. […] The lung surface area (counted as number of pixel) occupied by the tumor was calculated as a fraction of the total lung area, using Adobe PhotoShop. The number of tumor cells in residual tumors and the fraction of apoptotic cells in each tumor were also determined microscopically. Because apoptotic cells disappear over time, a second measure of the extent of apoptosis was the density of non-apoptotic cells in the residual tumors. This was determined by counting the number of non-apoptotic tumor cells in randomly selected microscopic fields at 400× magnification. […] In the case of combination therapy where fewer than 5 tumor nodules remained per animal, all residual cells (between 20 to 600 cells per animal) were counted.

The conditions of series [2]: Jodrell et al (1994); cited from earlier work.
The subject of series [3] is rat MAT-LyLu tumor cells. As to the kind of experiment: Reversal of CM-induced resistance by FGF antibodies and suramin, BrdU incorporation. It counts as cell-based. Conditions: CM of histocultures of lung metastases. On the procedure:
The source of CM was lung histocultures for the aFGF experiment, and early monolayer lung cultures for the bFGF experiment. The study used four controls: no CM (left solid curves, open circles); addition of 5 μg/ml aFGF or bFGF antibody but no CM (inverted filled triangle, overlaps with the left control curve); addition of CM but no antibody (right solid curves, open square); addition of CM plus a nonspecific antibody, IgG (5 μg/ml, filled diamond, overlaps with the right CM-control curve). Dotted curves, from right to left, addition of aFGF or bFGF antibody concentrations of 0.05 μg/ml (filled circle); 0.1 μg/ml (filled square); 1 or 0.5 μg/ml (filled triangle); and 5 μg/ml (open inverted triangle). […] Similar results were also found for human PC3 prostate tumor cells.
The first study used specific inhibitors of extracellular aFGF and bFGF, i.e., monoclonal antibodies (FIG. 2A). […] In the presence of the active CM, the bFGF antibody produced a concentration-dependent reversal of the CM-induced chemoresistance, with complete reversal by 5 microgram/ml antibody, whereas a nonspecific antibody (i.e., non-immune rabbit IgG) had no effect. For aFGF, the antibody treatment partially reversed the CM-induced resistance; the maximum reversal was about 60% that was obtained with 1 microgram/ml antibody with no significant additional reversal at a 5-fold higher concentration. The second study evaluated the effect of removing aFGF and/or bFGF from the active CM by immunoprecipitation. Removal of bFGF abolished the resistance, whereas removal of aFGF only partially reversed the CM effect. These two studies indicate that both aFGF and bFGF were involved in the resistance, but had different roles.
This study was performed using the rat MAT-LyLu tumor cells as the model tumor cells and using doxorubicin and paclitaxel as the model anticancer agents. The CM used to induce resistance was collected from histocultures of lung metastases (see Table 1). Five microgram/ml anti-bFGF antibody was added.
Background: Incorporation of labelled thymidine or its analogues reports DNA synthesis.

Series [4] has as its system subcutaneous PC3 tumors. The settings on record: suramin 10 mg/kg, doxorubicin 5 mg/kg, twice weekly for 3 weeks. As for the experimental part: Briefly, PC3 cells (5×10^6 cells) were injected subcutaneously.
The test system of series [5] is rat MAT-LyLu tumor cells, human prostate PC3 tumor cells, PC3-LN cells. The series is described as follows: Reversal of CM/FGF-induced resistance by suramin. The class given is cell-based. On the procedure:
The study was performed using rat MAT-LyLu tumor cells (shown here) and human prostate PC3 and PC3-LN tumor cells. The cytotoxic effect was detected by measuring the changes in BrdU incorporation in treated samples relative to control samples.

Series [6] has as its system rat MAT-LyLu tumor cells. As to the kind of experiment: Cytotoxicity of suramin alone, reduction of BrdU incorporation. The class given is cell-based. The settings on record: read-out: IC50, suramin concentration required to result in 50% reduction in BrdU incorporation.
The nature of series [7]: in vivo. Conditions: mouse, iv, 10 mg/kg. On the procedure:
(§1) Animal care was in accordance with the guidelines at the Ohio State University. Several human tumor models were used, including (a) lung metastases derived from intravenous injection of human PC3-LN tumor cells, (b) lung tumors derived from direct injection of human PC3 cells in lungs, and (c) subcutaneously implanted PC3 tumors. Four studies were performed. In all studies, drug treatment was administered intravenously via a tail vein, after the tumor was established. The first and second studies used the intravenous PC3-LN lung metastasis model. Briefly, human PC3-LN cells ([…] in 0.1 ml physiologic saline) were injected intravenously, via a tail vein, into immunodeficient mice. […] Treatment was given twice weekly for three weeks. […] The lung surface area (counted as number of pixel) occupied by the tumor was calculated as a fraction of the total lung area, using Adobe PhotoShop. The number of tumor cells in residual tumors and the fraction of apoptotic cells in each tumor were also determined microscopically. […] This was determined by counting the number of non-apoptotic tumor cells in randomly selected microscopic fields at 400× magnification. […] In the case of combination therapy where fewer than 5 tumor nodules remained per animal, all residual cells (between 20 to 600 cells per animal) were counted.

Series [8] relates to human prostate PC3-LN tumor cells. As to the kind of experiment: cells. The class given is cell-based. Conditions: read-out: IC50, suramin concentration required to result in 50% reduction in BrdU incorporation.
Series [9] concerns human PC3 lung tumors. The series is described as follows: Lung tumors established by direct injection of PC3 cells into the lungs of immunodeficient mice. The class given is in vivo. The settings on record: suramin alone, three doses of 20 mg/kg (n=3). As for the experimental part:
as §1

For series [10], the system named is Human prostate PC3 tumor cells. The series is described as follows: cells. It counts as cell-based. The settings on record: read-out: IC50, suramin concentration required to result in 50% reduction in BrdU incorporation. On the procedure:
PC3 and PC3-LN tumor cells. […] […].
Cells are harvested from subconfluent cultures using trypsin and resuspended in fresh medium before plating. […] Cells are plated in 96 well microtiter plates at a density such that confluence would not be achieved at the end of the drug treatment period. Cells are allowed to attach to the plate surface by growing in drug-free medium for 20 to 24 hr. […] The drug effect should be measured as inhibition of BrdU incorporation, e.g., according to the Cell Proliferation ELISA BrdU (Boehringer Mannheim).

A short description of series [11]: clinical. The settings on record: human, plasma, 240 mg/m^2.
Where [12] appears, read: doxorubicin study: suramin 10 mg/kg, doxorubicin 5 mg/kg, intravenous twice weekly for three weeks.
Where [13] appears, read: paclitaxel study: suramin 10 mg/kg, paclitaxel 15 mg/kg, intravenous twice weekly for three weeks.
[14] abbreviates: suramin 10 mg/kg, doxorubicin 5 mg/kg, intravenous twice weekly for three weeks.

Like-named read-outs stand apart in the source and are kept apart here.

As to `Cc1ccc(C(=O)Nc2ccc(S(=O)(=O)O)c3cc(S(=O)(=O)O)cc(S(=O)(=O)O)c23)cc1NC(=O)c1cccc(NC(=O)Nc2cccc(C(=O)Nc3cc(C(=O)Nc4ccc(S(=O)(=O)O)c5cc(S(=O)(=O)O)cc(S(=O)(=O)O)c45)ccc3C)c2)c1` [Suramin], in series [1] (setting [12]), the “% Apoptotic cells per tumor” value was 10 ± 7% and the “Density of nonapoptotic cells in residual tumors, cells/field” value turned out to be 139 ± 30 cells/field. Also, in series [1] (setting [13]), the “% Apoptotic cells per tumor” value is on record as 4 ± 3% and the “Density of nonapoptotic cells in residual tumors, cells/field” value is 185 ± 104 cells/field. Also, in series [1] (suramin 10 mg/kg alone), the “antitumor effect and toxicity of suramin alone” value was “no significant antitumor effect, nor toxicity”. Besides, in series [1] (setting [14]), the “% Lung surface area occupied by tumor” value is reported as 7 ± 3% and the “% Tumor-free animals” value stood at 0%. Further, the total body clearance in series [2] is 0.0095 liter/hour/m^2. In addition, the “suramin concentration that completely inhibited the bFGF-induced resistance” value in series [3] is 1 to 2 µM. The “effect on tumor growth” value in series [4] is listed as “no antitumor activity”. Further, in [5], the “concentration needed to fully reverse the FGF-induced resistance” value is 1 to 15 µM. Also, in series [6], the IC50 amounted to 235 µM. The concentration at 72 h in series [7] was approximately 10 µM. The IC50 in series [8] was 98 µM. The “animals free of tumors” value in series [9] is “No animals”. For the same compound, the IC50 in [10] came out at 93 µM. In series [11], this compound came in with a concentration at 0 h of approximately 90 µg/mL and a concentration at 96 h of approximately 18000 ng/mL.
